From patent publication US3974137A, “Process for the preparation of 1-[L-(-)-γ-amino-α-hydroxybutyryl]-kanamycin A (RD-1341A)” (priority 1974, dated 1976)
≈ marks a conversion by molar mass, not a printed value. Where “and” joins values, the source holds several entries; their conditions need not be identical. Equal values may be shown once. Where a name gives a salt, the structure may show the parent alone. Read-outs that look alike come from different tables or passages of the source.

Assays:
[1] = Hygroscopicity / water uptake on storage in air; type: physicochemical
[2] = test system: B. subtilis; assay: Relative potency, agar plate; type: cell-based; details: standard: kanamycin A free base
Procedure: Compound IV, as recovered from this process, is identical with authentic product obtained by the method described in co-pending application, Ser. No. 221,378. M.p. 194° (dec.) [α]D^21 +85° (c=2, H2 O). […] (standard: kanamycin A free base).

[3] = test system: Staphylococcus aureus A-9537; assay: CD50 in lethally infected mice; type: in vivo, Staphylococcus aureus (infected mice); details: for ED50: Staphylococcus aureus, A9537, sc, mice, subcutaneous, × 2 treatments (1 and 4 hours post-infection), test number 1, read-out: CD50 (curative dose, 50%); for effectiveness in infected mice (words): kanamycin A-sensitive strain
Procedure: (§1) ^b CD50 =curative dose, 50% (mg./kg./treated × number of
(§2) treatments). Mice were treated subcutaneously at 1 and 4 hours
(§3) post-infection when 2 treatment were administered and at 0, 2, 4 and 6
(§4) hours post-infection when 4 treatment weree given. Other aspects of the
(§5) test were carried out as described by Price et al. (J. of Antibiotics

[4] = Bioassay of column fractions (plate assays); type: cell-based; details: pooled column fractions; BB-K8: average of 4 plate assays, ± standard deviation
Text: *Average of 4 plate assays, ± standard deviation.

[5] = test system: Escherichia coli A-15119; assay: CD50 in lethally infected mice; type: in vivo, Escherichia coli (infected mice); details: for ED50: Escherichia coli, A15119, sc, mice, subcutaneous, × 2 treatments (1 and 4 hours post-infection), test number 1, read-out: CD50 (curative dose, 50%); for effectiveness in infected mice (words): kanamycin A-sensitive strain
Procedure: as §1, §2, §3, §4, §5

[6] = test system: Escherichia coli A-20520; assay: CD50 in lethally infected mice; type: in vivo, Escherichia coli (infected mice); details: for ED50: Escherichia coli, A20520, sc, read-out: CD50 (curative dose, 50%); for effectiveness in infected mice (words): kanamycin-resistant strain
Procedure: as §1, §2, §3, §4, §5

[7] = test system: gram-positive and gram-negative bacteria; assay: Antibacterial activity (MIC), overall comparison with kanamycin A; type: cell-based; details: in words
Text: Illustrated below are two tables showing the minimal inhibitory concentrations (MIC's) of kanamycin A and compound IVa (BB-K8) against a variety of gram-positive and gram-negative bacteria as obtained by the Steers agar-dilution method (Table I) and the two-fold dilution method (Table 2). Mueller-Hinton Agar Medium was used in the study of Table 1 and Heart Infusion Broth was used in the study of Table 2.

[8] = test system: Escherichia coli A-15119; assay: MIC, in vitro (Table 3); type: cell-based; details: A15119, Mueller-Hinten agar, test number 1
Text: (§6) ^a MIC =minimum inhibitory concentration (μg./ml.). Tests conducte
(§7) as described by Chisholm et al., (Antimicrob. Agents and
(§8) Chemotherapy-1969, p. 244, 1970) using Mueller-Hinten agar as the test

[9] = test system: Escherichia coli A-20520; assay: MIC, in vitro (Table 3); type: cell-based
Text: as §6, §7, §8

[10] = test system: Staphylococcus aureus A-9537; assay: MIC, in vitro (Table 3); type: cell-based
Text: as §6, §7, §8

[11] = mice, subcutaneous, × 4 treatments (0, 2, 4 and 6 hours post-infection), test number 2

SMILES: NCC[C@H](O)C(=O)N[C@@H]1C[C@H](N)[C@@H](O[C@H]2O[C@H](CN)[C@@H](O)[C@H](O)[C@H]2O)[C@H](O)[C@H]1O[C@H]1O[C@H](CO)[C@@H](O)[C@H](N)[C@H]1O [BB-K8^. 2H2 SO4, Disulfate Salt of 1-[L-(-)-γ-amino-α-hydroxybutyryl]-kanamycin A]
- water content after storage in air ([1]; Karl Fisher, in air at room temperature for 18 hours): 9.55% and 9.89%
- hygroscopicity ([1]; disulfate salt): hygroscopic but not deliquescent

SMILES: NCC[C@H](O)C(=O)N[C@@H]1C[C@H](N)[C@@H](O[C@H]2O[C@H](CN)[C@@H](O)[C@H](O)[C@H]2O)[C@H](O)[C@H]1O[C@H]1O[C@H](CO)[C@@H](O)[C@H](N)[C@H]1O [Compound IV, 1-[L-(-)-γ-amino-α-hydroxybutyryl]-kanamycin A]
- Relative potency against B. subtilis [2]: 960 µg/mg
- ED50 [3]: 2 mg/kg
- effectiveness in infected mice (words) [3]: equally effective
- effectiveness in infected mice (words) ([3]; listed as compound IV): slightly less active than kanamycin A
- Bioassay [4]: 786±101
- ED50 [5]: 2 mg/kg
- effectiveness in infected mice (words) [5]: equally effective
- ED50 ([6]; mice, subcutaneous, × 2 treatments (1 and 4 hours post-infection), test number 1): 66 mg/kg
- ED50 [6, 11]: 5 mg/kg
- effectiveness in infected mice (words) [6]: marked protective action
- times more active in 4-treatment regimen rather than in 2-treatment one ([6]; mice, 4-treatment vs 2-treatment regimen): approximately 10 times
- antibacterial activity compared with kanamycin A [7]: excellent antibacterial activity that appears superior to kanamycin A itself
- antibacterial activity compared with kanamycin A ([7]; listed as compound IV): superior to kanamycin A in activity, particularly against kanamycin A resistant organisms
- MIC [8]: 2 µg/mL (≈ 3.42 µM)
- MIC ([9]; A20520, Mueller-Hinten agar, test number 1, read-out: MIC): 2 µg/mL (≈ 3.42 µM)
- MIC ([10]; A9537, Mueller-Hinten agar, test number 1, read-out: MIC): 1 µg/mL (≈ 1.71 µM)

SMILES: NCC1OC(OC2C(N)CC(N)C(OC3OC(CO)C(O)C(N)C3O)C2O)C(O)C(O)C1O (centres unmarked) [Kanamycin A]
- ED50 [3]: 0.5 mg/kg
- effectiveness in infected mice (words) [3]: equally effective
- Bioassay [4]: 809
- ED50 [5]: 4 mg/kg
- effectiveness in infected mice (words) [5]: equally effective
- ED50 [6]: 200 mg/kg
- effectiveness in infected mice (words) [6]: not very effective in vivo
- CD50 (curative dose, 50%) [6, 11]: 200 mg./kg./treated × number of tr
- MIC [8]: 4 µg/mL (≈ 8.26 µM)
- MIC ([9]; A20520): 125 µg/mL (≈ 258 µM)
- MIC ([10]; A9537): 2 µg/mL (≈ 4.13 µM)
